# From patent US20050250737A1, “Therapeutic ophthalmic compositions containing retinal friendly excipients and related methods” (Allergan, Inc., priority 2003, published 2005)
# “Also recorded” adds a separate entry of the source.
# Key:
# ARPE-19 cells [1] = assay type: cell-based
# Experimental: Cell morphology was visualized using light microscopy. Cell morphology observation using light microscopy permits determination of (i) cell number and density and (ii) whether or not cells in contact with an excipient agent display modified phenotype compared to a non-treated population of cells.
# Cell morphology was analyzed in parallel by semi-quantitative scoring ranging from 5 to 1, from basal to lethal phenotype respectively, as shown in FIG. 23.
# More specifically, cells were removed from an incubator for examination. Morphological shape of cells was visualized using a light microscope and CCD camera. Every 3 wells of a given concentration was observed through image analysis software. Then, a representative photograph describing the average appearance of cells was saved. The supernatant was either, kept for further predefined experiments to perform, or removed using vacuum-pump.
# Resulting semi-quantitative scoring is represented as a function of time course and dose response. Score 5 : wild type phenotype of non-treated cells, 100% confluent adherent cells. This phenotype very much vary following post-seeding time. For example, at confluence ARPE-19 cells at 1 day appear well defined with visible outer membrane and dark grey cytoplasm. After 3 days of confluence, limits between cells become less visible and cells adopt a more hexagonal shape and constitute an epithelium-like uniform dense structure. Score 4: density <100%. Cell shape has changed, some spaces are present between cells, few cells possibly detached. Score 3: 80% <Cell density <40%. Spaces are sometimes present among cells, areas appears confluent while in others, cells detached. General cell shape starts showing non negligible alterations. Score 2: Cell density <50%. Cells adopt exclusively stressed appearance, presence of mass dead floating cells. Score 1: Cell density <10%. Presence of almost exclusively dead cells.
# Based on quotation, each condition of the applied compound was given a score which allow to a morphology evolution profile to be prepared, ie. cell morphology as a function of compound concentration and time of exposure. […]
# ARPE-19 cells [2] = experiment: in vitro; details: for Reduction of cell survival: 0.1% (w/v), 24, 48 and 72 hour time points
# Text: Cell viability and cell morphology were examined to evaluate the toxicity of excipients on retinal pigment epithelial cells. The human retina cell line used in these experiments is the ARPE-19 cell line (human adult-derived retinal pigmented epithelial cells). […] They form tight-junctions with transepithelial resistance of monolayers (Dunn K C et al., supra). From a molecular standpoint, it appears that ARPE-19 express a huge pattern of genes similar to those expressed by human RPE from fresh explant which could account for their physiological function (Klimanskaya I. et al., “Derivation and comparative assessment of retinal pigment epithelium from human embryonic stem cells using transcriptomics”, Cloning and Stem Cells, 2004, 6(3):217-45).
# ARPE-19 cells are widely used as a retinal model that resemble physiological properties of RPE cells. Similar methods of culturing ARPE-19 cells and cytotoxicity assays can be found in Yeung et al., “Cytotoxicity of triamcinolone on cultured human retinal pigment epithelial cells: comparison with dexamethasone and hydrocortisone”, Jpn J. Ophthalmol, 2004; 48:236-242. Cell viability and cell morphology were examined using conventional colormetric and visual methods. Viability and morphology measurements were obtained at 24 hours, 48 hours, and 72 hours after exposure to an excipient composition.
# To assess cell viability, mitochondrial metabolism was quantified through conventional colorometric assays (i.e., the MTT assay). This calorimetric assay utilizes 3-(4,5-dimethylthiazol-2-yl)-2,5-diphenyltetrazolium bromide (MTT) and correlates mitochondrial metabolism and cell viability through measurement of dehydrogenase activity which converts a substrate into crystal. More specifically, the assay measures the activity of living cells through mitochondrial dehydrogenases. When dissolved in culture cell medium, MTT solution appears dark orange. Mitochondrial dehydrogenases of viable cells degrade MTT by cleaving the tetrazolium ring yielding to formation of a purple formazan crystal, which is insoluble in water. Crystals are subsequently dissolved in isopropanol solution. A resulting purple solution is spectrophotometrically measured. Cell viability is relative to amount of formazan and calculated as a percentage of remaining treated compared to non-treated cells.
# Results from the MTT assay were expressed as a percentage of cell viability calculated using the following equation: % cell viability=ODtest/ODcontrol×100.
# For each experiment, one concentration was performed in triplicate. Each point was spectrophotometrically read twice. Average of readings was calculated, then average from these 3 values was determined.
# After 3 experiments were independently completed under the same conditions, a graph was plotted with cell viability expressed as a function of concentration (dose response) and for various incubation period (time course). The IC50 was then estimated based on the graphed data.
# More specifically, cell density in 24-multiwell plates was observed on the day of the experiment to check if confluence of the cells was reached. Aliquots of MTT concentrated solutions were removed from a freezer at −20° C. and thawed at room temperature. Cell medium was warmed at 37° C. before use. Appropriated tubes for diluting compounds were prepared. Higher concentrations of each excipient agent was prepared. Serial dilution was then performed in cell medium (DMEM:F12+10% FBS).
# Cell culture medium in the 24-well plate was removed using vacuum-pump. Cells were then stimulated with 0.5 ml final volume for each concentration of one given excipient agent. Distribution of the excipient-containing solution was performed using automated pipet-aid in sterile environment (under PSM) or not depending on time of compounds and duration of incubation.
# After stimulation, cells were replaced in a CO2 incubator for the required time of exposure.
# [3] = pH of excipient-containing incubating solutions; assay type: physicochemical
# Experimental: (§1) For each concentration of tested compound, pH and osmolarity parameters were measured.
# [4] = Osmolarity of excipient-containing incubating solutions; assay type: physicochemical
# Experimental: Osmolarity was measured using osmometer type 13/13DR from Roebling (Berlin, GR).
# as §1
Substance,Decrease of cell viability (ARPE-19 cells [2]),Reduction of cell survival (ARPE-19 cells [2]),pH of excipient dilution ([3]; 0.1% in culture medium),pH of excipient dilution ([3]; 0.5% in culture medium),pH of excipient dilution ([3]; 1% in culture medium),pH of excipient dilution ([3]; 5% in culture medium),pH of excipient dilution ([3]; 10% in culture medium),pH of excipient dilution ([3]; 20% in culture medium),Osmolarity of excipient dilution ([4]; 0.1% in culture medium),Osmolarity of excipient dilution ([4]; 0.5% in culture medium),Osmolarity of excipient dilution ([4]; 1% in culture medium),Osmolarity of excipient dilution ([4]; 5% in culture medium),Osmolarity of excipient dilution ([4]; 10% in culture medium),other results
hydroxypropyl beta-cyclodextrin [Kleptose®],about 40%,20-30%,7.6,7.6,7.5,7.5,7.5,7.6,309 mOsm,317 mOsm,325 mOsm,375 mOsm,459 mOsm,"Morphology limit concentration (%) (ARPE-19 cells [1]): 2.6-3%; Cell survival (% of the initial value) (ARPE-19 cells [2]; 1% (w/v)): about 70%; Cell survival (ARPE-19 cells [2]; 5% (w/v), 24 h): complete disappearance of living cells; also recorded: about 20%; IC50 (50% cell viability inhibition, MTT) (ARPE-19 cells [2]; ARPE-19, all incubation times 24-72 h, estimated from graph): about 2.2%; MTT IC50 (%) (ARPE-19 cells [2]; ARPE-19 cells, summary Table 3): 2.2-2.5%; Osmolarity of excipient dilution ([4]; 20% in culture medium): 635 mOsm"
hydroxypropyl gamma-cyclodextrin [Cavasol],–,≤ 10%,7.6,7.6,7.6,7.6,7.6,7.6,–,–,–,–,–,"Effect on both cell parameters (viability, morphology) (ARPE-19 cells [2]): no measurable effect on both cell parameters; Viable cells (ARPE-19 cells [2]): approximately 80%; Percentage of living cells (ARPE-19 cells [2]; 0.05 to 10%, after recovery (later than 24 h)): > 80%; Cell survival (% of the initial value) (ARPE-19 cells [2]; 10% (w/v)): about 80%; IC50 (cell viability), statement in words (ARPE-19 cells [2]; at the tested concentrations and incubation times): not possible to determine the IC50"
hydroxypropylmethyl cellulose [HPMC],20-40%,–,–,–,–,–,–,–,–,–,–,–,–,"Cell viability, experiment 3 (ARPE-19 cells [2]): 77.4%"
sulfobutyl ether 4 beta-cyclodextrin [Captisol],–,10-20%,7.6,7.6,7.6,7.6,7.7,7.7,310 mOsm,318 mOsm,333 mOsm,408 mOsm,518 mOsm,"Cell survival (% of the initial value) (ARPE-19 cells [2]; 5% (w/v)): 70-80%; Cell survival (ARPE-19 cells [2]; 10% (w/v), 24 hour time point): 50-60%; Osmolarity of excipient dilution ([4]; 20% in culture medium, listed as Sulfobutylether 4 beta-CD): far exceeds physiological osmolarity range; Osmolarity of excipient dilution ([4]; 20% in culture medium, listed as Sulfobutylether 4beta-CD): 710 mOsm"
